#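 Exposure lasted 48 hours, with cells grown in 96-well plates and compounds tested at five concentrations. TGI: total growth inhibition.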
# Assays:
# Test in all cases: DTP human tumour cell line panel, 48 h
# RXF 393 renal = system: RXF 393 renal
# HCT-15 colon = system: HCT-15 colon
# KM12 colon = system: KM12 colon
# M14 melanoma = system: M14 melanoma
# DMS 273 small cell lung = system: DMS 273 small cell lung
# SNB-75 CNS = system: SNB-75 CNS
# EKVX NSCLC = system: EKVX NSCLC
# CAKI-1 renal = system: CAKI-1 renal
# SF-268 CNS = system: SF-268 CNS
# A498 renal = system: A498 renal
# HCT-116 colon = system: HCT-116 colon
# DLD-1 colon = system: DLD-1 colon
# 786-0 renal = system: 786-0 renal
# SK-MEL-5 melanoma = system: SK-MEL-5 melanoma
# MOLT-4 leukemia = system: MOLT-4 leukemia
# OVCAR-3 ovarian = system: OVCAR-3 ovarian
# NCI-H226 lung = system: NCI-H226 lung
# OVCAR-4 ovarian = system: OVCAR-4 ovarian
# HL-60(TB) leukemia = system: HL-60(TB) leukemia
# HOP-62 NSCLC = system: HOP-62 NSCLC
# LXFL 529 NSCLC = system: LXFL 529 NSCLC
# UACC-257 melanoma = system: UACC-257 melanoma
# SF-539 CNS = system: SF-539 CNS
# KM20L2 colon = system: KM20L2 colon
# HT29 colon = system: HT29 colon
# HOP-92 NSCLC = system: HOP-92 NSCLC
# A549 NSCLC = system: A549 NSCLC
# U251 CNS = system: U251 CNS
# MALME-3M melanoma = system: MALME-3M melanoma
# UACC-62 melanoma = system: UACC-62 melanoma
# K-562 leukemia = system: K-562 leukemia
# SR leukemia = system: SR leukemia
# RPMI-8226 leukemia = system: RPMI-8226 leukemia
# TK-10 renal = system: TK-10 renal
# SF-295 CNS = system: SF-295 CNS
# NCI-H522 lung = system: NCI-H522 lung
# SNB-19 CNS = system: SNB-19 CNS
# IGROV1 ovarian = system: IGROV1 ovarian
# SK-MEL-28 melanoma = system: SK-MEL-28 melanoma
# HOP-18 NSCLC = system: HOP-18 NSCLC
# COLO 205 colon = system: COLO 205 colon
# NCI-H23 lung = system: NCI-H23 lung
# SNB-78 CNS = system: SNB-78 CNS
# SN12C renal = system: SN12C renal
# SW-620 colon = system: SW-620 colon
# OVCAR-5 ovarian = system: OVCAR-5 ovarian
# ACHN renal = system: ACHN renal
# HCC-2998 colon = system: HCC-2998 colon
# DMS 114 small cell lung = system: DMS 114 small cell lung
# SK-MEL-2 melanoma = system: SK-MEL-2 melanoma
# OVCAR-8 ovarian = system: OVCAR-8 ovarian
# LOX IMVI melanoma = system: LOX IMVI melanoma
# UO-31 renal = system: UO-31 renal
# CCRF-CEM leukemia = system: CCRF-CEM leukemia
# NCI-H460 lung = system: NCI-H460 lung
# SK-OV-3 ovarian = system: SK-OV-3 ovarian
# M19-MEL melanoma = system: M19-MEL melanoma
# DU-145 prostate = system: DU-145 prostate
# T-47D breast = system: T-47D breast
# PC-3 prostate = system: PC-3 prostate
# MDA-N = system: MDA-N
# MDA-MB-435 = system: MDA-MB-435
# BT-549 breast = system: BT-549 breast
# MDA-MB-231 breast = system: MDA-MB-231 breast
# NCI/ADR-RES ovarian = system: NCI/ADR-RES ovarian
# HS 578T breast = system: HS 578T breast
# MCF7 breast = system: MCF7 breast
structure (smiles),measurement,setting,value
O=C1[C@@H]2C(c3ccccc3[N+](=O)[O-])=[N+](c3ccccc3)O[C@@H]2C(=O)N1c1ccc(Cc2ccc(N3C(=O)[C@H]4C(c5ccccc5[N+](=O)[O-])=[N+](c5ccccc5)O[C@H]4C3=O)cc2)cc1,TGI,RXF 393 renal,> 100 µM
same,TGI,HCT-15 colon,> 100 µM
same,TGI,KM12 colon,> 100 µM
same,TGI,M14 melanoma,49.9 µM
same,TGI,DMS 273 small cell lung,> 100 µM
same,TGI,SNB-75 CNS,> 100 µM
same,TGI,EKVX NSCLC,> 100 µM
same,TGI,CAKI-1 renal,> 100 µM
same,TGI,SF-268 CNS,> 100 µM
same,TGI,A498 renal,> 100 µM
same,TGI,HCT-116 colon,> 100 µM
same,TGI,DLD-1 colon,> 100 µM
same,TGI,786-0 renal,> 100 µM
same,TGI,SK-MEL-5 melanoma,> 100 µM
same,TGI,MOLT-4 leukemia,> 100 µM
same,TGI,OVCAR-3 ovarian,> 100 µM
same,TGI,NCI-H226 lung,> 100 µM
same,TGI,OVCAR-4 ovarian,> 100 µM
same,TGI,HL-60(TB) leukemia,> 100 µM
same,TGI,HOP-62 NSCLC,> 100 µM
same,TGI,LXFL 529 NSCLC,> 100 µM
same,TGI,UACC-257 melanoma,> 100 µM
same,TGI,SF-539 CNS,> 100 µM
same,TGI,KM20L2 colon,> 100 µM
same,TGI,HT29 colon,> 100 µM
same,TGI,HOP-92 NSCLC,> 100 µM
same,TGI,A549 NSCLC,> 100 µM
same,TGI,U251 CNS,> 100 µM
same,TGI,MALME-3M melanoma,81.6 µM
same,TGI,UACC-62 melanoma,> 100 µM
same,TGI,K-562 leukemia,> 100 µM
same,TGI,SR leukemia,> 100 µM
same,TGI,RPMI-8226 leukemia,> 100 µM
same,TGI,TK-10 renal,> 100 µM
same,TGI,SF-295 CNS,> 100 µM
same,TGI,NCI-H522 lung,> 100 µM
same,TGI,SNB-19 CNS,> 100 µM
same,TGI,IGROV1 ovarian,> 100 µM
same,TGI,SK-MEL-28 melanoma,> 100 µM
same,TGI,HOP-18 NSCLC,> 100 µM
same,TGI,COLO 205 colon,> 100 µM
same,TGI,NCI-H23 lung,> 100 µM
same,TGI,SNB-78 CNS,> 100 µM
same,TGI,SN12C renal,> 100 µM
same,TGI,SW-620 colon,> 100 µM
same,TGI,OVCAR-5 ovarian,> 100 µM
same,TGI,ACHN renal,> 100 µM
same,TGI,HCC-2998 colon,> 100 µM
same,TGI,DMS 114 small cell lung,> 100 µM
same,TGI,SK-MEL-2 melanoma,> 100 µM
same,TGI,OVCAR-8 ovarian,> 100 µM
same,TGI,LOX IMVI melanoma,> 100 µM
same,TGI,UO-31 renal,> 100 µM
same,TGI,CCRF-CEM leukemia,> 100 µM
same,TGI,NCI-H460 lung,> 100 µM
same,TGI,SK-OV-3 ovarian,> 100 µM
same,TGI,M19-MEL melanoma,> 100 µM
C=C1CCCC(C)(C)C1CCC1(C)CCC(C(C)C(=O)OC)OO1 (stereo unspecified),TGI,RXF 393 renal,11.7 µM
same,TGI,HCT-15 colon,> 25 µM
same,TGI,KM12 colon,2.84 µM
same,TGI,M14 melanoma,> 25 µM
same,TGI,DU-145 prostate,8.63 µM
same,TGI,SNB-75 CNS,7.56 µM
same,TGI,EKVX NSCLC,21.8 µM
same,TGI,CAKI-1 renal,0.749 µM
same,TGI,SF-268 CNS,7.77 µM
same,TGI,A498 renal,> 15.3 µM
same,TGI,HCT-116 colon,> 25 µM
same,TGI,T-47D breast,11.7 µM
same,TGI,786-0 renal,0.76 µM
same,TGI,SK-MEL-5 melanoma,> 25 µM
same,TGI,MOLT-4 leukemia,> 25 µM
same,TGI,OVCAR-3 ovarian,> 25 µM
same,TGI,NCI-H226 lung,> 25 µM
same,TGI,OVCAR-4 ovarian,17.4 µM
same,TGI,PC-3 prostate,7.56 µM
same,TGI,HL-60(TB) leukemia,9.16 µM
same,TGI,HOP-62 NSCLC,4.7 µM
same,TGI,UACC-257 melanoma,> 25 µM
same,TGI,SF-539 CNS,> 22.2 µM
same,TGI,MDA-N,7.39 µM
same,TGI,HT29 colon,> 25 µM
same,TGI,MDA-MB-435,7.59 µM
same,TGI,HOP-92 NSCLC,2.44 µM
same,TGI,A549 NSCLC,4.15 µM
same,TGI,U251 CNS,7.21 µM
same,TGI,MALME-3M melanoma,> 25 µM
same,TGI,BT-549 breast,9.97 µM
same,TGI,UACC-62 melanoma,> 15.5 µM
same,TGI,K-562 leukemia,> 25 µM
same,TGI,MDA-MB-231 breast,> 25 µM
same,TGI,SR leukemia,9.78 µM
same,TGI,RPMI-8226 leukemia,25 µM
same,TGI,TK-10 renal,7.72 µM
same,TGI,NCI/ADR-RES ovarian,> 18.4 µM
same,TGI,SF-295 CNS,10.2 µM
same,TGI,NCI-H522 lung,12.6 µM
same,TGI,HS 578T breast,13.8 µM
same,TGI,SNB-19 CNS,> 18.1 µM
same,TGI,IGROV1 ovarian,1.7 µM
same,TGI,SK-MEL-28 melanoma,> 25 µM
same,TGI,COLO 205 colon,13.3 µM
same,TGI,NCI-H23 lung,8.99 µM
same,TGI,SN12C renal,8.4 µM
same,TGI,SW-620 colon,24.2 µM
same,TGI,OVCAR-5 ovarian,> 23.1 µM
same,TGI,ACHN renal,2.75 µM
same,TGI,HCC-2998 colon,11.5 µM
same,TGI,SK-MEL-2 melanoma,> 25 µM
same,TGI,OVCAR-8 ovarian,> 19.8 µM
same,TGI,LOX IMVI melanoma,0.902 µM
same,TGI,UO-31 renal,1.91 µM
same,TGI,CCRF-CEM leukemia,> 18 µM
same,TGI,NCI-H460 lung,3.77 µM
same,TGI,SK-OV-3 ovarian,9.43 µM
same,TGI,MCF7 breast,> 25 µM
